Laboratory results taken from patent publication US20230248834A1, “DEGRADATION OF (EGFR) BY CONJUGATION OF EGFR INHIBITORS WITH E3 LIGASE LIGAND AND METHODS OF USE” (BEIGENE, LTD., priority 2020, published 2023).

Molecular target: T1, EGFR L858R/T790M/C797S (Homo sapiens, UniProt P00533, C797S/L858R/T790M)
T1 construct: expressed in transfected cells; host or cells: BaF3-LTC
Experiment: EGFR degradation HTRF assay in BaF3-LTC cells
Format: cell-based
Details: BaF3-LTC (L858R/T790M/C797S), maximum percentage of inhibition (degradation); read-out: BaF3-LTC Dmax (%)
Experimental: BaF3-LTC(L858R/T790M/C797S) cells and BaF3 LC(L858R/C797S) cells are treated with compounds diluted in 0.2% DMSO cell culture medium and incubate for 16 h, 37° C., 5% CO2. the final concentration of compounds in all assay is start with 10 uM, 5-fold dilution, total 8 doses were included.
After 16 h treatment, add HTRF lysis buffer to each well; seal the plate and incubate 1 hour at room temperature on a plate shaker; Once the cells are lysed, 16 μL of cell lysate are transferred to a PE 384-well HTRF detection plate; 4 μL of pre-mixed HTRF antibodies are added to each well; Cover the plate with a plate sealer, spin 1000 rpm for 1 min, Incubate overnight at room temperature; Read on BMG PheraStar with HTRF protocol (337 nm-665 nm-620 nm).
The inhibition (degradation) percentage of the compound was calculated by the following equation: Inhibition percentage of Compound=100−100×(Signal−low control)/(High control−low control), wherein signal=each test compound group
High control=Cell group with added DMSO and without compound, indicating microplate readings without EGFR degradation;
Dmax is the maximum percentage of inhibition (degradation).
The IC50 (DC50) value of a compound can be obtained by fitting the following equation
Y=Bottom+(TOP−Bottom)/(1+((IC50/X)^hillslope))
Wherein, X and Y are known values, and IC50, Hillslope, Top and Bottom are the parameters obtained by fitting with software. Y is the inhibition percentage (calculated from the equation), X is the concentration of the compound; IC50 is the concentration of the compound when the 50% inhibition is reached. The smaller the IC50 value is, the stronger the inhibitory ability of the compound is. Vice versa, the higher the IC50 value is, the weaker the inhibitory ability of the compound is; Hillslope represents the slope of the fitted curve, generally around 1*; Bottom represents the minimum value of the curve obtained by data fitting, which is generally 0%±20%; Top represents the maximum value of the curve obtained by data fitting, which is generally 100%±20%. The experimental data were fitted by calculating and analyzing with Dotmatics data analysis software.

T1 sequence (P00533 25-1210 T790M/C797S/L858R): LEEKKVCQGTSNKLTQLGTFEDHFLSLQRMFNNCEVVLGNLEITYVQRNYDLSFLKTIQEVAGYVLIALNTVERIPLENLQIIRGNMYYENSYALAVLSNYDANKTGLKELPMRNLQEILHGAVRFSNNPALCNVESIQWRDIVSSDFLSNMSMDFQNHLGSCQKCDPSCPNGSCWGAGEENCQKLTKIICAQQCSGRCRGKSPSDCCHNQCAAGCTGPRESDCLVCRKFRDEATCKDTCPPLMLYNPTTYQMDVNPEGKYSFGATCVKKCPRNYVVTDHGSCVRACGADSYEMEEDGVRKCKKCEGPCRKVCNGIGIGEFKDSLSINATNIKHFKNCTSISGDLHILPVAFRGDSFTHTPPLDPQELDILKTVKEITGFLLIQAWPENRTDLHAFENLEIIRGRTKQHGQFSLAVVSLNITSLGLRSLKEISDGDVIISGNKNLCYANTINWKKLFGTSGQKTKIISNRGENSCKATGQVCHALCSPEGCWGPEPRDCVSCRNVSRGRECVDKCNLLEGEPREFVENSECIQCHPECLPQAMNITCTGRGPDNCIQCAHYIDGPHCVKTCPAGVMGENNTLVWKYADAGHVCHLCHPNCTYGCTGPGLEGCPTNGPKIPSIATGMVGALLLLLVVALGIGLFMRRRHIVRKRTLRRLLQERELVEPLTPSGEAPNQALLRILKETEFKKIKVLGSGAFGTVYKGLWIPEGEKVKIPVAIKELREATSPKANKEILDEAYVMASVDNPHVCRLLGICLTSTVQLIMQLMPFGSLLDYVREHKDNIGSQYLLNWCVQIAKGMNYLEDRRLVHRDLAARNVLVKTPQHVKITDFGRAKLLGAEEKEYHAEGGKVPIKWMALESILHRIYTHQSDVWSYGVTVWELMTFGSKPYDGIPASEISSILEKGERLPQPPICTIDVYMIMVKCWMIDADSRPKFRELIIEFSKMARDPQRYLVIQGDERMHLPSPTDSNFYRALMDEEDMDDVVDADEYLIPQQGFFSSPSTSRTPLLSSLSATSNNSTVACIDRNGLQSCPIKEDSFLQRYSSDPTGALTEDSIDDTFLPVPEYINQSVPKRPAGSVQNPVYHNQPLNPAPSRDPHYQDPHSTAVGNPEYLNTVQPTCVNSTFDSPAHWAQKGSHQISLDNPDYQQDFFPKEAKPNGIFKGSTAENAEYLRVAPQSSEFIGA

SMILES: CCOc1cc(N2CCC(N3CCN(CCc4c(F)cc(F)c5c4oc(=O)n5C4CCC(=O)NC4=O)CC3)CC2)c(CC)cc1Nc1ncc(Br)c(Nc2ccc3nc(CC)ccc3c2P(C)(C)=O)n1 (stereo not shown) [Example 731, 3-(7-(2-(4-(1-(4-((5-bromo-4-((5-(dimethylphosphoryl)-2-ethylquinolin-6-yl)amino)pyrimidin-2-yl)amino)-5-ethoxy-2-ethylphenyl)piperidin-4-yl)piperazin-1-yl)ethyl)-4,6-difluoro-2-oxobenzo[d]oxazol-3(2H)-yl)piperidine-2,6-dione]
- Dmax: 80.3%

SMILES: COc1cc(N2CCC(N3CCN(C(=O)[C@@H]4CCN(c5cc(F)c([C@H]6CCC(=O)NC6=O)c(F)c5)C4)CC3)CC2)c(C)cc1Nc1ncc(Br)c(Nc2ccc3nc(C)c(F)cc3c2P(C)(C)=O)n1 [Example 732, (R)-3-(4-((R)-3-(4-(1-(4-((5-bromo-4-((5-(dimethylphosphoryl)-3-fluoro-2-methylquinolin-6-yl)amino)pyrimidin-2-yl)amino)-5-methoxy-2-methylphenyl)piperidin-4-yl)piperazine-1-carbonyl)pyrrolidin-1-yl)-2,6-difluorophenyl)piperidine-2,6-dione]
- Dmax: 95.5%

SMILES: CCOc1cc(N2CCC(N3CCN(CCc4cc(F)c([C@H]5CCC(=O)NC5=O)c(F)c4)CC3)CC2)c(CC)cc1Nc1ncc(C)c(Nc2cc(F)c3nc(CC)ccc3c2P(C)(C)=O)n1 [Example 733, (R)-3-(4-(2-(4-(1-(4-((4-((5-(dimethylphosphoryl)-2-ethyl-8-fluoroquinolin-6-yl)amino)-5-methylpyrimidin-2-yl)amino)-5-ethoxy-2-ethylphenyl)piperidin-4-yl)piperazin-1-yl)ethyl)-2,6-difluorophenyl)piperidine-2,6-dione]
- Dmax: 89.5%

SMILES: CCOc1cc(N2CCC(N3CCN(CCc4c(F)ccc5c4n(C)c(=O)n5C4CCC(=O)NC4=O)CC3)CC2)c(CC)cc1Nc1ncc(Br)c(Nc2ccc3nc(CC)ncc3c2P(C)(C)=O)n1 (stereo not shown) [Example 736, 3-(4-(2-(4-(1-(4-((5-bromo-4-((5-(dimethylphosphoryl)-2-ethylquinazolin-6-yl)amino)pyrimidin-2-yl)amino)-5-ethoxy-2-ethylphenyl)piperidin-4-yl)piperazin-1-yl)ethyl)-5-fluoro-3-methyl-2-oxo-2,3-dihydro-1H-benzo[d]imidazol-1-yl)piperidine-2,6-dione]
- Dmax: 97%

SMILES: CCOc1cc(N2CCC(N3CCN(CCc4cccc5c4n(CC)c(=O)n5C4CCC(=O)NC4=O)CC3)CC2)c(CC)cc1Nc1ncc(Br)c(Nc2ccc3nc(CC)ncc3c2P(C)(C)=O)n1 (stereo not shown) [Example 737, 3-(4-(2-(4-(1-(4-((5-bromo-4-((5-(dimethylphosphoryl)-2-ethylquinazolin-6-yl)amino)pyrimidin-2-yl)amino)-5-ethoxy-2-ethylphenyl)piperidin-4-yl)piperazin-1-yl)ethyl)-3-ethyl-2-oxo-2,3-dihydro-1H-benzo[d]imidazol-1-yl)piperidine-2,6-dione]
- Dmax: 97.7%

SMILES: CCOc1cc(N2CCC(N3CCN(CCc4cc(F)c([C@H]5CCC(=O)NC5=O)c(F)c4)CC3)CC2)c(CC)cc1Nc1ncc(Br)c(Nc2ccc3nc(C)ncc3c2P(C)(C)=O)n1 [Example 738, (R)-3-(4-(2-(4-(1-(4-((5-bromo-4-((5-(dimethylphosphoryl)-2-methylquinazolin-6-yl)amino)pyrimidin-2-yl)amino)-5-ethoxy-2-ethylphenyl)piperidin-4-yl)piperazin-1-yl)ethyl)-2,6-difluorophenyl)piperidine-2,6-dione]
- Dmax: 95.7%

SMILES: CCc1cc(Nc2ncc(Br)c(Nc3ccc4nc(C)ncc4c3P(C)(C)=O)n2)c(OC)cc1N1CCC(N2CCN(CCc3cc(F)c([C@H]4CCC(=O)NC4=O)c(F)c3)CC2)CC1 [Example 739, (R)-3-(4-(2-(4-(1-(4-((5-bromo-4-((5-(dimethylphosphoryl)-2-methylquinazolin-6-yl)amino)pyrimidin-2-yl)amino)-2-ethyl-5-methoxyphenyl)piperidin-4-yl)piperazin-1-yl)ethyl)-2,6-difluorophenyl)piperidine-2,6-dione]
- Dmax: 95.7%
